Measurements: PMC8587515, “Cytotoxic and Anti-Inflammatory Activities of Dihydroisocoumarin and Xanthone Derivatives from Garcinia picrorhiza” (Molecules, 2021)

Legend:
[1] = molecular target: T1, COX-1 (purified PGHS-1 from ram seminal vesicles) (Ovis aries, UniProt P05979); experiment: COX-1 enzyme inhibition assay (PGE2 ELISA); format: biochemical; conditions: mean ± SD (n = 4)
T1 construct: Purified PGHS-1 from ram seminal vesicles for COX-1; purchased Cayman Chemical Co., Ann Arbor, MI, USA; host or cells: ram seminal vesicles (tissue-purified)
T1 sequence (P05979 25-600): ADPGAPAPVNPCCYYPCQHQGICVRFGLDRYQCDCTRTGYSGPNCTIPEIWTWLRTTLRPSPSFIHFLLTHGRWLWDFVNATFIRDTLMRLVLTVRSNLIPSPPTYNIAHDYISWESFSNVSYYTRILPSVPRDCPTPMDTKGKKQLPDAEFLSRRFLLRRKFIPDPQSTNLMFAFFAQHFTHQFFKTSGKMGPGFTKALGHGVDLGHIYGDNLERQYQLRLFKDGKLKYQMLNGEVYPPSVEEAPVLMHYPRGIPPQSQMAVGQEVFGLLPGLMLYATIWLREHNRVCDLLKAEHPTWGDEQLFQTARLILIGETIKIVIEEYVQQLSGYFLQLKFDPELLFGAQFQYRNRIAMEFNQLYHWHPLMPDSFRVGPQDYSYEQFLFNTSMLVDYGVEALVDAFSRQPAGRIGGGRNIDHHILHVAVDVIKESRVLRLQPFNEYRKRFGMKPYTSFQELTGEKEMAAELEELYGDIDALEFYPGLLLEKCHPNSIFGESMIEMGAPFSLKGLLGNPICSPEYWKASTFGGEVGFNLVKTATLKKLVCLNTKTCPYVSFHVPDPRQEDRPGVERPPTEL
Procedure: The anti-inflammatory effects of the isolated compounds were also screened on COX-1 and COX-2 enzymes inhibition at a final concentration of 20 µM.
Purified PGHS-1 from ram seminal vesicles for COX-1 and human recombinant PGHS-2 for COX-2 (Cayman Chemical Co., Ann Arbor, MI, USA) were used for the COX inhibition assays. Experiments were performed in a 96-well plate format, as previously described. Briefly, the incubation mixture contained 180 µL of 0.1 M TRIS/HCl-buffer pH 8.0 (Roth, Karlsruhe, Germany), 50 µM Na2EDTA (only for COX-2, Titriplex III, Merck, Darmstadt, Germany), 18 mM L-epinepherine bitartrate (Fluka, Buchs, Switzerland), 5 µM porcine hematin (MP Biomedicals LLC, Solon, OH, USA), and COX-1 or COX-2 enzymes (0.2 U/well). Ten microliters of tested compounds (dissolved in DMSO with a final concentration of 20 µM) was added and the mixture was pre-incubated for 5 min at room temperature. Thereafter, 10 µL of 5 µM arachidonic acid (Ann Arbor, Michigan USA) was added to the mixture and incubated for 20 min at 37 °C. The reaction was subsequently stopped by adding 10 µL of 10% (v/v) formic acid. The concentration of PGE2 generated in the reaction was quantitatively measured by a competitive PGE2 ELISA kit (Enzo Life Sciences Inc., Farmingdale, NY, USA) according to the manufacturer’s protocol and previous procedure. The absorbance at 405 nm was measured using a Hidex Sense Microplate Reader (Hidex, Turku, Finland). […] The assays were performed in duplicates and repeated in two independent experiments.

[2] = tested on: NO production in LPS-IFN-γ-induced BV-2 microglial cells; experiment: NO production inhibition assay (Griess), BV-2; format: cell-based, mouse; conditions: for IC50: Mus musculus, BV-2, LPS-IFN-γ-induced, 16 h, mean ± SEM (n = 6), read-out: IC50, iNOS (inhibition of NO production), BV-2; for suppression of NO production, BV-2: final concentration of 50 µM, preliminary screen; for IC50 of NO inhibition lower than the cytotoxic activity, BV-2: ratio cytotoxicity IC50 / NO inhibition IC50 in BV-2 cells
Procedure: (§1) Compounds 1–8 were screened for their inhibitory effects on nitric oxide production in LPS-IFN-γ activated RAW 264.7 macrophages and BV-2 microglial cells at a final concentration of 50 µM. […] A deprenylated furanoxanthone structure with ortho hydroxy group in ring B as in 7 might be important to enhance the inhibitory effect when compared to 6 and 8.
(§2) The iNOS inhibitory activity of the isolated compounds and respective cytotoxicity was determined using a previously described protocol. Briefly, BV-2 mouse microglial (25,000 cells/well) and RAW 264.7 mouse macrophage (100,000 cells/well) cell lines were seeded into 96-well plates in high glucose Dulbecco’s Modified Eagle’s Medium (DMEM, Gibco) containing 4 mM L-glutamine, 10% FBS, 2% HEPES, 1% penicillin/streptomycin, and 0.5% amphotericin B. After incubation for 24 h at 37 °C in a 5% CO2 humidified atmosphere, the cells were stimulated with 0.05% LPS (Sigma) and 0.025% interferon-γ (Roche Diagnostics, Mannheim, Germany) and treated with different concentrations (5–100 μM) of the tested compounds. The level of NO production in cell culture supernatants was determined using Griess reagent (Sigma) by photocolorimetric analysis after 16 h of incubation, using a Hidex Sense Microplate Reader (Hidex, Turku, Finland). Fifty microliters of XTT reagent (Sigma, Kit II) was then added into the same plates for cell viability measurement after 60 min incubation. L-NMMA (Alexis, Grünberg, Germany) 100 µM was used as the positive control, while 1% DMSO and digitonin (Roth, Karlsruhe, Germany) 400 µM were used as the vehicle and negative control, respectively. The assays were conducted in triplicates and repeated in two independent experiments. IC50 values were determined by graphical analysis using GraphPad Prism 7 (GraphPad Software, La Jolla, CA, USA).

[3] = tested on: NO production in LPS-IFN-γ-induced RAW 264.7 macrophages; experiment: NO production inhibition assay (Griess), RAW 264.7; format: cell-based, mouse; conditions: for IC50: Mus musculus, RAW264.7, LPS-IFN-γ-induced, 16 h, mean ± SEM (n = 6), read-out: IC50, iNOS (inhibition of NO production), RAW 264.7; for suppression of NO production, RAW 264.7: final concentration of 50 µM, preliminary screen
Procedure: as §1, §2

[4] = Cytotoxicity (XTT cell viability), BV-2; format: cell-based; conditions: mouse, BV-2 microglial cells, LPS/IFN-γ-stimulated, LPS-IFN-γ-induced cells, mean ± SEM (n = 6)
Procedure: as §1, §2

[5] = Cytotoxicity (XTT cell viability), RAW 264.7; format: cell-based; conditions: mouse, RAW 264.7 macrophage cells, LPS/IFN-γ-stimulated, LPS-IFN-γ-induced cells, mean ± SEM (n = 6)
Procedure: as §1, §2

| Compound | inhibition at 20 µM [1] [%] | IC50 [2] [µM] | suppression of NO production, BV-2 [2] | IC50 of NO inhibition lower than the cytotoxic activity, BV-2 [2] [fold] | IC50 [3] [µM] | suppression of NO production, RAW 264.7 [3] | IC50 at 16 h [4] [µM] | IC50 at 16 h [5] [µM] |
| --- | --- | --- | --- | --- | --- | --- | --- | --- |
| C[C@@H]1Oc2cc(O)c3c(=O)c4ccc(O)c(O)c4oc3c2C1(C)C [Compound 7, 2-deprenylrheediaxanthone B] | 15.4 ± 7.5 | 28.7 ± 2.3 | over 70% | 1.1 | 45.6 ± 6.5 | over 70% | 31.7 ± 4.7 | 85.6 ± 6.9 |
| C[C@H]1Oc2c(c(O)c3c(=O)c4ccc(O)c(O)c4oc3c2CCC(C)(C)O)C1(C)C [Compound 4, gerontoxanthone C hydrate] | 32.4 ± 7.9 | 20 ± 4 | over 70% | 1.4 | 84.3 ± 3.5 | over 70% | 27.7 ± 6.4 | > 200 |
